Here are results for ten molecules from US12613246B2, “Fluorescent probe and protein labeling method” (SHANGHAI GLORY CAPITAL MANAGEMENT LTD., priority 2018, dated 2026).

Data set [1] concerns SNAP protein tag. The data set can be described thus: Fluorescence activation after mixing probe with corresponding protein tag (SNAP). As to conditions: probe 5 μM, protein tag 10 μM, 37° C., 1 h. It is filed as biochemical. Here is the method:
(§1) Mix the probe with corresponding protein tag to obtain the mixed sample, wherein the final concentration of probe in the mixed sample is 5 μM, and the final concentration of protein tags is 10 μM; hatch the mixed sample at 37° C. for 1 h, and detect its fluorescence intensity change by using the fluorescence spectrophotometer.
(§2) According to the free probe quantum yield shown in Table 1, the fluorescence of the probes of and reference probes are extremely low before the reaction with the protein tag, and is close to the background fluorescence level of PBS buffer solution. […] However, according to the quantum yield of the binding protein tag, the fluorescence signal enhancement can be detected in the corresponding excitation emission channel after the probe reacts with the protein tag with hundreds to one thousand fold fluorescence activation times and very high brightness; the reference probes also can activate fluorescence, but the fluorescence quantum yield and brightness after activation are quite low.

Data set [2] can be described thus: Fluorescence of free probe before reaction with the protein tag. It counts as physicochemical. The method, then:
as §1, §2

Data set [3] is described as follows: Fluorescence emission spectra of probes in glycerol and methanol (viscosity response). It is filed as physicochemical. As to conditions: maximum excitation wavelength of each probe; for Fluorescence ratio in glycerol methanol: 1×10^−5 M; for Emission wavelength: medium not given. The text has this: Respectively dissolve Probe 1-32 and Reference Probes BG-CCVJ and BG-Gly-CCVJ in dimethyl sulfoxide so as to prepare a mother liquid with a concentration of 1×10^−2M; add the mother liquid to glycerol and methanol respectively and mix them well to prepare a solution with a concentration of 1×10^−5 M. Based on different probes, the fluorescence emission spectrum of each probe are detected under the same conditions with maximum excitation wavelength of each probe.
The probes are sensitive to the change of viscosity and have viscosity response.

As to `COCCNC(=O)/C(C#N)=C/c1cc2c(s1)-c1ccc(N(C)CCOC(=O)NCc3ccc(COc4nc(N)nc5[nH]cnc45)cc3)cc1C2(C)C` [Probe 19], in data set [1], the Fluorescence activation multiple came out at 670 and the “Quantum yield of binding protein tags” value is reported as 0.51. Also, the “Quantum yield of free probe” value in data set [2] was under 0.001. In data set [3], the “Fluorescence ratio in glycerol methanol” value is given as 996 and the Emission wavelength is listed as 640 nm.

In data set [1], `N#C/C(=C\c1cc2c3c(c1)CCCN3CCC2)C(=O)NCC(=O)NCc1ccc(COc2nc(N)nc3[nH]cnc23)cc1` [Reference probe BG-Gly-CCVJ, reference compound] displayed a Fluorescence activation multiple of 60. The “Quantum yield of free probe” value in data set [2] is given as under 0.001. The “Fluorescence ratio in glycerol methanol” value in data set [3] is reported as 260.

Consider `CN(CCOC(=O)NCc1ccc(COc2nc(N)nc3[nH]cnc23)cc1)c1ccc2c(c1)C(C)(C)C(/C=C(\C#N)C(=O)OC(C)(C)C)=N2` [Probe 30], for which, in data set [1], the Fluorescence activation multiple came to 503 and the “Quantum yield of binding protein tags” value is reported as 0.41. Also, in data set [2], the “Quantum yield of free probe” value is under 0.001. In data set [3], the “Fluorescence ratio in glycerol methanol” value was determined as 412 and the Emission wavelength was found to be 675 nm.

Regarding `CN(CCOC(=O)NCc1ccc(COc2nc(N)nc3[nH]cnc23)cc1)c1ccc2c(c1)C(C)(C)c1cc(/C=C(\C#N)C(=O)O)sc1-2` [Probe 23], in data set [1], the Fluorescence activation multiple is listed as 433 and the “Quantum yield of binding protein tags” value was 0.33. Moreover, in data set [2], the “Quantum yield of free probe” value is listed as under 0.001. In data set [3], the “Fluorescence ratio in glycerol methanol” value was found to be 512 and the Emission wavelength is 643 nm.

In the case of `COCCNC(=S)/C(C#N)=C/c1cc2c(s1)-c1ccc(N(C)CCOC(=O)NCc3ccc(COc4nc(N)nc5[nH]cnc45)cc3)cc1C2(C)C` [Probe 20], in data set [1], the Fluorescence activation multiple is 910 and the “Quantum yield of binding protein tags” value amounted to 0.44. In addition, the “Quantum yield of free probe” value in data set [2] is under 0.001. In data set [3], the “Fluorescence ratio in glycerol methanol” value is 1123 and the Emission wavelength turned out to be 665 nm.

Turning to `CN(CCOC(=O)NCc1ccc(COc2nc(N)nc3[nH]cnc23)cc1)c1ccc2c(c1)C(C)(C)C(/C=C(\C#N)c1nc3ccccc3s1)=N2` [Probe 31], in data set [1], the Fluorescence activation multiple was found to be 445 and the “Quantum yield of binding protein tags” value was 0.47. Moreover, the “Quantum yield of free probe” value in data set [2] is reported as under 0.001. Also, in data set [3], the “Fluorescence ratio in glycerol methanol” value came to 573 and the Emission wavelength is 703 nm.

Regarding `CN(CCOC(=O)NCc1ccc(COc2cc(Cl)nc(N)n2)cc1)c1ccc2c(c1)C(C)(C)c1cc(/C=C(\C#N)C(=O)OC(C)(C)C)sc1-2` [Probe 27], in data set [1], the Fluorescence activation multiple is 557 and the “Quantum yield of binding protein tags” value is 0.41. Also, in data set [2], the “Quantum yield of free probe” value was under 0.001. In data set [3], the “Fluorescence ratio in glycerol methanol” value was 493 and the Emission wavelength is reported as 645 nm.

In the case of `CN(CCOC(=O)NCc1ccc(COc2nc(N)nc3[nH]cnc23)cc1)c1ccc(-c2ccc(/C=C(\C#N)C(=O)OC(C)(C)C)o2)cc1` [Probe 5], in data set [1], the Fluorescence activation multiple is on record as 669 and the “Quantum yield of binding protein tags” value is given as 0.44. Further, the “Quantum yield of free probe” value in data set [2] is on record as under 0.001. For the same molecule, in data set [3], the “Fluorescence ratio in glycerol methanol” value is on record as 821 and the Emission wavelength stood at 615 nm.

Turning to `COC(=S)/C(C#N)=C/c1cc2c(s1)-c1ccc(N(C)CCOC(=O)NCc3ccc(COc4nc(N)nc5[nH]cnc45)cc3)cc1C2(C)C` [Probe 21], in data set [1], the Fluorescence activation multiple turned out to be 451 and the “Quantum yield of binding protein tags” value stood at 0.39. For the same molecule, in data set [2], the “Quantum yield of free probe” value is under 0.001. Besides, in data set [3], the “Fluorescence ratio in glycerol methanol” value turned out to be 542 and the Emission wavelength is 680 nm.

As for `CN(CCOC(=O)NCc1ccc(COc2nc(N)nc3[nH]cnc23)cc1)c1ccc2c(c1)C(C)(C)c1cc(/C=C(\C#N)C(=O)OC(C)(C)C)oc1-2` [Probe 28], in data set [1], the Fluorescence activation multiple turned out to be 857 and the “Quantum yield of binding protein tags” value was determined as 0.67. Moreover, the “Quantum yield of free probe” value in data set [2] was under 0.001. Also, in data set [3], the “Fluorescence ratio in glycerol methanol” value is given as 1274 and the Emission wavelength is listed as 651 nm.
